In patent publication US4551532A, “Ethylene glycol derivatives having anti-protozoan, anti-fungal and anti-tumor activity” (priority 1980, dated 1985):
≈ marks a conversion by molar mass, not a printed value. Where two headings read alike, the source gives them in different places.

How the values were obtained:
[1] = tested on: Cochliobolus miyabeanus; assay: antifungal activity, serial dilution method; assay type: cell-based; conditions: Bipolaris oryzae
[2] = tested on: Aspergillus niger; assay: antifungal activity, serial dilution method; assay type: cell-based
[3] = tested on: Botrytis cinerea; assay: antifungal activity, serial dilution method; assay type: cell-based; conditions: Botrytis cinerea (gray mold); 1% glucose-bouillon agar
[4] = tested on: Saccharomyces cerevisiae; assay: antifungal activity, serial dilution method; assay type: cell-based
[5] = tested on: Leptosphaeria salvinii; assay: antifungal activity, serial dilution method; assay type: cell-based; conditions: Nakataea oryzae
[6] = tested on: Penicillium; assay: antifungal activity, serial dilution method; assay type: cell-based, Penicillium niger
[7] = tested on: Sclerotinia sclerotiorum; assay: antifungal activity, serial dilution method; assay type: cell-based; conditions: Sclerotinia sclerotiorum (kidney bean stem rot); 1% glucose-bouillon agar
[8] = tested on: Pyricularia oryzae; assay: microbe, parasite or virus in culture; assay type: cell-based
[9] = tested on: Colletotrichum lagenarium; assay: antifungal activity, serial dilution method; assay type: cell-based; conditions: Colletotrichum orbiculare
[10] = tested on: Cryptococcus neoformans; assay: antimycotic activity, paper disk inhibition circle; assay type: cell-based; conditions: 48 h, 8 mm paper disk, 3 mg/ml, 37° C., 2 days, read-out: Growth inhibition Cryptococcus
Experimental: (§1) Referring to the antimycotic activity presented in Table 2, Cryptoccoccus neoformans and others were used as the test microbes, a paper disk (8 mm in diameter) was immersed in an aqueous solution of each test compound having a concentration of 3 mg/ml, air dried and placed on an agar medium, then incubation was conducted at 37° C. for 2 days, and the inhibition circle was measured. When the diameter of the inhibition circle was not larger than 8 mm, 8-10 mm, 10-20 mm, or larger than 20 mm, the activity was judged as -, ±, + or ++, respectively.

[11] = tested on: Hamigera; assay: antimycotic activity, paper disk inhibition circle; assay type: cell-based; conditions: 48 h; 8 mm paper disk, 3 mg/ml, 37° C., 2 days; read-out: Growth inhibition Hamigera
Experimental: as §1

[12] = tested on: Rhodotorula; assay: antimycotic activity, paper disk inhibition circle; assay type: cell-based; conditions: 48 h, 8 mm paper disk, 3 mg/ml, 37° C., 2 days, read-out: Growth inhibition Rhodotorula
Experimental: as §1

[13] = tested on: Tetrahymena pyriformis W strain; assay: antiprotozoal activity, broth dilution method; assay type: cell-based; conditions: 28° C., 44-48 hours, pH 7.0, read-out: Growth inhibition MIC Tetrahymena
[14] = tested on: human myelocytic leukemia cells HL-60; assay: growth inhibiting effect (IG effect) on HL-60; assay type: cell-based; conditions: HL-60, 120 h, 5 day culture, read-out: IG effect on HL-60 GD50
[15] = Aspergillus niger (black mold), 1% glucose-bouillon agar, read-out: MIC
[16] = Saccharomyces cerevisiae (brewer's yeast), 1% glucose-bouillon agar, read-out: MIC
[17] = Leptosphaeria salvinii (rice stem rot), 1% glucose-bouillon agar, read-out: MIC
[18] = Penicillium niger (blue mold), 1% glucose-bouillon agar, read-out: MIC
[19] = Colletotrichum lagenarium (cucumber anthracnose), 1% glucose-bouillon agar, read-out: MIC

Compound: CCCCCCCCCCCCCOCCOCCOP(=O)([O-])OCC[N+](C)(C)C [Ex.]
- MIC [1]: 25 µg/mL (≈ 55.1 µM)
- MIC [2, 15]: 25 µg/mL (≈ 55.1 µM)
- MIC [3]: 25 µg/mL (≈ 55.1 µM)
- MIC [4, 16]: 12.5 µg/mL (≈ 27.6 µM)
- MIC [5, 17]: 12.5 µg/mL (≈ 27.6 µM)
- MIC [6, 18]: 12.5 µg/mL (≈ 27.6 µM)
- MIC [7]: 100 µg/mL (≈ 220 µM)
- MIC [8]: 6.25 µg/mL (≈ 13.8 µM)
- MIC [9, 19]: 3.12 µg/mL (≈ 6.88 µM)

Compound: CCCCCCCCCCCCOCCOCCOCCOCCOCCOP(=O)([O-])OCC[n+]1ccccc1 [Example 2, 3,6,9,12,15-Pentaoxaheptacosyl 2-pyridinioethyl phosphate]
- zone of inhibition at 3000 µg/mL [10]: 8 to 10 mm
- zone of inhibition at 3000 µg/mL [11]: < 8 mm
- zone of inhibition at 3000 µg/mL [12]: 10 to 20 mm
- MIC [13]: > 4 µg/mL

Compound: CCCCCCCCCCCCOCCOCCOCCOCCOCCOP(=O)([O-])OCC[N+](C)(C)C [Example 3, 3,6,9,12,15-Pentaoxaheptacosyl 2-trimethylammonioethyl phosphate]
- zone of inhibition at 3000 µg/mL [10]: < 8 mm
- MIC [13]: > 4 µg/mL

Compound: CCCCCCCC/C=C\CCCCCCCCOCCOCCOP(=O)(O)OCCN [Example 5, 3,6-Dioxatetracos-15(Z)-enyl 2-aminoethyl phosphate]
- zone of inhibition at 3000 µg/mL [10]: 8 to 10 mm
- MIC [13]: 4 µg/mL

Compound: CCCCCCCC/C=C\CCCCCCCCOCCOCCOP(=O)(O)OCCNC(C)(C)C [Example 8, 3,6-Dioxatetracos-15(Z)-enyl 2-tert-butylaminoethyl phosphate]
- MIC [13]: > 4 µg/mL

Compound: CCCCCCCC/C=C\CCCCCCCCOCCOCCOCCOCCOP(=O)(O)OCCN [Example 10, 3,6,9,12-Tetraoxatriacont-21(Z)-enyl 2-aminoethyl phosphate]
- IC50 [14]: 1 to 2 µg/mL
- zone of inhibition at 3000 µg/mL [10]: 10 to 20 mm
- MIC [13]: > 4 µg/mL

Compound: CCCCCCCCCCCCOCCOCCOP(=O)(O)OCCN [Example 12, 2-[2-(Dodecyloxy)ethoxy]ethyl 2-aminoethyl phosphate]
- MIC [1]: 50 µg/mL
- IC50 [14]: 5 µg/mL
- zone of inhibition at 3000 µg/mL [10]: > 20 mm
- zone of inhibition at 3000 µg/mL [11]: 10 to 20 mm
- zone of inhibition at 3000 µg/mL [12]: 10 to 20 mm
- MIC [2, 15]: 25 µg/mL
- MIC [3]: 50 µg/mL
- MIC [4, 16]: 100 µg/mL
- MIC [13]: 2 to 4 µg/mL
- MIC [7]: 25 µg/mL
- MIC [8]: 100 µg/mL
- MIC [9, 19]: 25 µg/mL

Compound: CCCCCCCCCCCCOCCOCCOCCOP(=O)(O)OCCN [Example 13, 3,6,9-Trioxaheneicosanyl 2-aminoethyl phosphate]
- MIC [1]: 50 µg/mL
- zone of inhibition at 3000 µg/mL [10]: 10 to 20 mm
- zone of inhibition at 3000 µg/mL [11]: 10 to 20 mm
- zone of inhibition at 3000 µg/mL [12]: 10 to 20 mm
- MIC [2, 15]: 25 µg/mL
- MIC [3]: 50 µg/mL
- MIC [4, 16]: 100 µg/mL
- MIC [13]: 4 µg/mL
- MIC [7]: 25 µg/mL
- MIC [8]: 100 µg/mL
- MIC [9, 19]: 25 µg/mL

Compound: CCCCCCCCCCCCOCCOCCOCCOCCOP(=O)(O)OCCN [Example 14, 3,6,9,12-Tetraoxatetracosyanyl 2-aminoethyl phosphate]
- zone of inhibition at 3000 µg/mL [10]: 10 to 20 mm
- zone of inhibition at 3000 µg/mL [11]: 10 to 20 mm
- zone of inhibition at 3000 µg/mL [12]: 10 to 20 mm
- MIC [13]: 4 µg/mL

Compound: CCCCCCCCCCCCOCCOCCOCCOP(=O)([O-])OCC[n+]1ccccc1 [Example 16, 3,6,9-Trioxaheneicosanyl 2-pyridinioethyl phosphate]
- MIC [1]: 25 µg/mL
- zone of inhibition at 3000 µg/mL [10]: > 20 mm
- zone of inhibition at 3000 µg/mL [11]: 10 to 20 mm
- zone of inhibition at 3000 µg/mL [12]: 10 to 20 mm
- MIC [2, 15]: 25 µg/mL
- MIC [3]: 12.5 µg/mL
- MIC [4, 16]: 50 µg/mL
- MIC [13]: > 4 µg/mL
- MIC [5, 17]: 25 µg/mL
- MIC [6, 18]: 12.5 µg/mL
- MIC [7]: 50 µg/mL
- MIC [8]: 25 µg/mL
- MIC [9, 19]: 12.5 µg/mL

Compound: CCCCCCCCCCCCCCCCCCOCCOCCOP(=O)([O-])OCC[N+](C)(C)C [Example 18, 3,6-Dioxatetracoxyl 2-trimethylammonioethyl phosphate]
- MIC [1]: > 100 µg/mL
- zone of inhibition at 3000 µg/mL [10]: 10 to 20 mm
- MIC [2, 15]: > 100 µg/mL
- MIC [3]: 25 µg/mL
- MIC [13]: ≥ 4 µg/mL
- MIC [5]: 12.5 µg/mL
- MIC [6, 18]: > 100 µg/mL
- MIC [7]: > 100 µg/mL
- MIC [8]: 12.5 µg/mL
- MIC [9, 19]: > 100 µg/mL

Compound: CCCCCCCCCCOCCOCCOP(=O)([O-])OCC[N+](C)(C)C [Example 21, 3,6-Dioxahexadecyl 2-trimethylammonioethyl phosphate]
- zone of inhibition at 3000 µg/mL [10]: 10 to 20 mm
- MIC [13]: 2 µg/mL

Compound: CCCCCCCCCCOCCOCCOP(=O)(O)OCCN [Example 22, 3,6-Dioxahexadecyl 2-aminoethyl phosphate]
- zone of inhibition at 3000 µg/mL [10]: < 8 mm
- MIC [13]: 4 µg/mL

Compound: CCCCCCCCCCCCCCOCCOCCOP(=O)(O)OCCN [Example 24, 3,6-Dioxaeicosyl 2-aminoethyl phosphate]
- MIC [1]: 100 µg/mL
- zone of inhibition at 3000 µg/mL [10]: 10 to 20 mm
- MIC [2, 15]: 12.5 µg/mL
- MIC [3]: 25 µg/mL
- MIC [13]: 1 to 2 µg/mL
- MIC [5, 17]: > 100 µg/mL
- MIC [6, 18]: 6.25 µg/mL
- MIC [7]: 50 µg/mL
- MIC [8]: 25 µg/mL
- MIC [9, 19]: 25 µg/mL

Compound: CCCCCCCCCCCCOCCOCCOP(=O)([O-])OCC[N+](C)(C)C [Example 25, 3,6-Dioxaoctadecyl 2-trimethylammonioethyl phosphate]
- MIC [1]: 25 µg/mL
- zone of inhibition at 3000 µg/mL [10]: > 20 mm
- MIC [2, 15]: 25 µg/mL
- MIC [3]: 6.25 µg/mL
- MIC ([4]; Saccharomyces cerevisiae): 12.5 µg/mL
- MIC [13]: 0.4 µg/mL
- MIC [5, 17]: 6.25 µg/mL
- MIC ([6]; Penicillium): 12.5 µg/mL
- MIC [7]: 25 µg/mL
- MIC [8]: 12.5 µg/mL
- MIC [9, 19]: 1.56 µg/mL

Compound: CCCCCCCCCCCCCCOCCOCCOP(=O)([O-])OCC[N+](C)(C)C [Example 26, 3,6-Dioxaeicosyl 2-trimethylammonioethyl phosphate]
- MIC [1]: 12.5 µg/mL
- zone of inhibition at 3000 µg/mL [10]: 10 to 20 mm
- MIC ([2]; Aspergillus niger): 12.5 µg/mL
- MIC [3]: 6.25 µg/mL
- MIC [4, 16]: 6.25 µg/mL
- MIC [13]: 0.2 µg/mL
- MIC [5, 17]: 6.25 µg/mL
- MIC [6, 18]: 6.25 µg/mL
- MIC [7]: 50 µg/mL
- MIC [8]: 3.12 µg/mL
- MIC [9, 19]: 1.56 µg/mL

Compound: CCCCCCCCCCCCCOCCOCCOP(=O)([O-])OCC[n+]1ccccc1 [Example 28, 3,6-Dioxanonadecyl 2-pyridinioethyl phosphate]
- MIC [1]: 25 µg/mL
- zone of inhibition at 3000 µg/mL [10]: > 20 mm
- MIC [2, 15]: 25 µg/mL
- MIC [3]: 12.5 µg/mL
- MIC [13]: 4 µg/mL
- MIC [5, 17]: 12.5 µg/mL
- MIC [6, 18]: 12.5 µg/mL
- MIC [7]: 25 µg/mL
- MIC [8]: 6.25 µg/mL
- MIC [9]: 6.25 µg/mL

Compound: CCCCCCCCCCCCCOCCOCCOP(=O)([O-])OCC[N+](C)(C)C [Example 29, 3,6-Dioxanonadecyl 2-trimethylammonioethyl phosphate]
- zone of inhibition at 3000 µg/mL [10]: > 20 mm
- MIC [13]: ≤ 1 µg/mL

Compound: CCCCCCCCCCCCOCCOCCOP(=O)([O-])OCC[n+]1ccc2ccccc2c1 [Example 32, 3,6-Dioxaoctadecyl 2-isoquinolinioethyl phosphate]
- zone of inhibition at 3000 µg/mL [10]: > 20 mm
- MIC [13]: 4 µg/mL

Compound: CCCCCCCCCCCCCCOCCOCCOP(=O)([O-])OCC[n+]1ccccc1 [Example 34, 3,6-Dioxaeicosyl 2-pyridinioethyl phosphate]
- zone of inhibition at 3000 µg/mL [10]: 10 to 20 mm
- MIC [13]: 4 µg/mL
